Laboratory results taken from patent US20170050957A1, “4-AMINO-6-(HETEROCYCLIC)PICOLINATES AND 6-AMINO-2-(HETEROCYCLIC)PYRIMIDINE-4-CARBOXYLATES AND THEIR USE AS HERBICIDES” (Dow AgroSciences LLC, priority 2013, published 2017).
Where two headings read alike, the source gives them in different places.

What was measured:
Format in all cases: in vivo
[1] = system: giant foxtail (Setaria faberi); assay: Post-emergent Test I herbicidal activity
Experimental: (§1) Post-emergent Test I Seeds test species were obtained from commercial suppliers and planted into a 5″-round pot containing soil-less media mix (metro-mix 360®, Sun Gro Horticulture). Postemergence treatments were planted 8-12 days prior to application and cultured in a greenhouse equipped with supplemental light sources to provide a 16 h photoperiod at 24-29° C. All pots were surface irrigated. Approximately 10 milligrams (mg) of each compound were dissolved in 1.3 mL acetone-DMSO (97:3, v/v) and diluted with 4.1 mL water-isopropanol-crop oil concentrate (78:20:2, v/v/v) containing 0.02% Triton X-155. Treatments were serial diluted with the above formulation solvent to provide 1.85, 0.926, 0.462 and 0.231 mg/mL of test compound delivered in 2.7 mL/pot (roughly equivalent to 4.0, 2.0, 1.0, and 0.5 kg/ha, respectively). Formulated compounds were applied using a DeVilbiss® compressed air sprayer at 2-4 psi. Following treatment, pots were returned to the greenhouse for the duration of the experiment. All pots were sub-irrigated as need to provide optimum growing conditions. All pots were fertilized one time per week by subirrigating with Peters Peat-Lite Special® fertilizer (20-10-20). Phytotoxicity ratings were obtained 10 days after treatment postemergence applications. All evaluations were made visually on a scale of 0 to 100 where 0 represents no activity and 100 represents complete plant death. Visual assessments of plant injury were made based on growth reduction, discoloration, leaf deformity and necrosis

[2] = system: sunflower (Helianthus annuus); assay: Post-emergent Test I herbicidal activity
Experimental: as §1

[3] = system: barnyardgrass (Echinochloa crus-galli); assay: Post-emergent Test I herbicidal activity
Experimental: as §1

wild oats (Avena fatua) = assay: Post-emergent Test I herbicidal activity
Experimental: as §1

[4] = system: Key Broadleaf Weed and Crop Species; assay: Post-emergent Test II herbicidal activity (Table 15); conditions: post-emergence, 336 h, 14 d; for pest or weed control at 35 g/ha: 35 g ai/ha; for pest or weed control at 70 g/ha: 70 g ai/ha; for pest or weed control at 140 g/ha: 140 g ai/ha
In short: (§2)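 Greenhouse-grown seedlings at first/second true leaf receive a track spray at 187 L/ha, using a highest rate plus two-fold serial dilutions down to 1/16×. Watering is by subirrigation to avoid wash-off. Percent injury (0-100) is judged by eye at 14 d against untreated plants.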

[5] = system: Key Grass and Sedge Weeds as well as Grass Crops; assay: Post-emergent Test II herbicidal activity (Table 16); conditions: post-emergence, 336 h, 14 d; for pest or weed control at 35 g/ha: 35 g ai/ha; for pest or weed control at 70 g/ha: 70 g ai/ha; for pest or weed control at 140 g/ha: 140 g ai/ha
In short: as §2

[6] = Abutilon theophrasti, velvetleaf (Abutilon theophrasti), read-out: Visual Growth Reduction (%) 14 Days After Application, ABUTH
[7] = Amaranthus retroflexus, redroot pigweed (Amaranthus retroflexus), read-out: Visual Growth Reduction (%) 14 Days After Application, AMARE
[8] = Brassica napus, oilseed rape, canola (Brassica napus), read-out: Visual Growth Reduction (%) 14 Days After Application, BRSNN
[9] = Chenopodium album, lambsquarters (Chenopodium album), read-out: Visual Growth Reduction (%) 14 Days After Application, CHEAL
[10] = Euphorbia heterophylla, wild poinsettia (Euphorbia heterophylla), read-out: Visual Growth Reduction (%) 14 Days After Application, EPHHL
[11] = Helianthus annuus, sunflower (Helianthus annuus), read-out: Visual Growth Reduction (%) 14 Days After Application, HELAN
[12] = Cyperus esculentus, yellow nutsedge (Cyperus esculentus), read-out: Visual Growth Reduction (%) 14 Days After Application, CYPES
[13] = Echinochloa crus-galli, barnyardgrass (Echinochloa crus-galli), read-out: Visual Growth Reduction (%) 14 Days After Application, ECHCG
[14] = Oryza sativa, rice (Oryza sativa), read-out: Visual Growth Reduction (%) 14 Days After Application, ORYSA
[15] = Setaria faberi, giant foxtail (Setaria faberi), read-out: Visual Growth Reduction (%) 14 Days After Application, SETFA
[16] = Triticum aestivum, wheat, spring (Triticum aestivum), read-out: Visual Growth Reduction (%) 14 Days After Application, TRZAS
[17] = Zea mays, maize, corn (Zea mays), read-out: Visual Growth Reduction (%) 14 Days After Application, ZEAMX

Structure (SMILES) | pest or weed control at 140 g/ha [4, 6] [%] | pest or weed control at 140 g/ha [4, 7] [%] | pest or weed control at 140 g/ha [4, 8] [%] | pest or weed control at 140 g/ha [4, 9] [%] | pest or weed control at 140 g/ha [4, 10] [%] | pest or weed control at 140 g/ha [4, 11] [%] | pest or weed control at 35 g/ha [5, 12] [%] | pest or weed control at 70 g/ha [5, 12] [%] | pest or weed control at 140 g/ha [5, 12] [%] | pest or weed control at 35 g/ha [5, 13] [%] | pest or weed control at 70 g/ha [5, 13] [%] | pest or weed control at 140 g/ha [5, 13] [%] | pest or weed control at 35 g/ha [5, 14] [%] | pest or weed control at 70 g/ha [5, 14] [%] | pest or weed control at 140 g/ha [5, 14] [%] | pest or weed control at 35 g/ha [5, 15] [%] | pest or weed control at 70 g/ha [5, 15] [%] | pest or weed control at 140 g/ha [5, 15] [%] | pest or weed control at 35 g/ha [5, 16] [%] | pest or weed control at 70 g/ha [5, 16] [%] | other results
COC(=O)c1nc(-c2ccc3ccn(C)c3c2)c(F)c(N)c1Cl [Compound 1.10] | 0 to 29 | 95 to 100 | 0 to 29 | 95 to 100 | 0 to 29 | 45 to 59 | 0 to 29 | 0 to 29 | 0 to 29 | 0 to 29 | 0 to 29 | 0 to 29 | 0 to 29 | 0 to 29 | 0 to 29 | 0 to 29 | 0 to 29 | 0 to 29 | 0 to 29 | 0 to 29 | Visual Growth Reduction (%) 10 Days After Application SETFA ([1]; 3.96 Kg ai/ha): G (0-29); Visual Growth Reduction (%) 10 Days After Application HELAN ([2]; 3.96 Kg ai/ha): A (95-100); Visual Growth Reduction (%) 10 Days After Application ECHCG ([3]; 3.96 Kg ai/ha): G (0-29); Visual Growth Reduction (%) 10 Days After Application AVEFA (wild oats (Avena fatua); 3.96 Kg ai/ha): G (0-29); pest or weed control at 35 g/ha [4, 6]: 0 to 29%; pest or weed control at 70 g/ha [4, 6]: 0 to 29%; pest or weed control at 35 g/ha [4, 7]: 0 to 29%; pest or weed control at 70 g/ha [4, 7]: 85 to 94%; pest or weed control at 35 g/ha [4, 8]: 0 to 29%; pest or weed control at 70 g/ha [4, 8]: 0 to 29%; pest or weed control at 35 g/ha [4, 9]: 95 to 100%; pest or weed control at 70 g/ha [4, 9]: 95 to 100%; pest or weed control at 35 g/ha [4, 10]: 0 to 29%; pest or weed control at 70 g/ha [4, 10]: 0 to 29%; pest or weed control at 35 g/ha [4, 11]: 0 to 29%; pest or weed control at 70 g/ha [4, 11]: 0 to 29%; pest or weed control at 140 g/ha [5, 16]: 0 to 29%; pest or weed control at 35 g/ha [5, 17]: 0 to 29%; pest or weed control at 70 g/ha [5, 17]: 0 to 29%; pest or weed control at 140 g/ha [5, 17]: 0 to 29%
Nc1c(F)c(-c2cccc3cc[nH]c23)nc(C(=O)O)c1Cl [Compound 1.48] | 0 to 29 | 0 to 29 | 0 to 29 | 60 to 74 | 0 to 29 | 75 to 84 | 0 to 29 | 0 to 29 | 0 to 29 | 0 to 29 | 0 to 29 | 0 to 29 | 0 to 29 | 0 to 29 | 0 to 29 | 0 to 29 | 0 to 29 | 0 to 29 | 0 to 29 | 0 to 29 | Visual Growth Reduction (%) 10 Days After Application SETFA ([1]; 4 Kg ai/ha): G (0-29); Visual Growth Reduction (%) 10 Days After Application HELAN ([2]; 4 Kg ai/ha): C (75-84); Visual Growth Reduction (%) 10 Days After Application ECHCG ([3]; 4 Kg ai/ha): G (0-29); Visual Growth Reduction (%) 10 Days After Application AVEFA (wild oats (Avena fatua); 4 Kg ai/ha): G (0-29); pest or weed control at 140 g/ha [5, 16]: 0 to 29%; pest or weed control at 35 g/ha [5, 17]: 0 to 29%; pest or weed control at 70 g/ha [5, 17]: 0 to 29%; pest or weed control at 140 g/ha [5, 17]: 0 to 29%
